Source: patent US9157067B2, “Pluripotent cells from mammalian late epiblast layer” (priority 2006, dated 2015)

Experiments:
Type in all cases: cell-based
rat epiblast layers = assay: Derivation of EpiSC lines from rat epiblast layers; conditions: addition to CDM supplemented with Activin
Text: The hypothesis that Activin and FGF signalling in pluripotency are conserved in mammalian development is supported by the ability of Activin/Nodal signalling to maintain long-term pluripotency of both human ESCs and mouse EpiSCs. As a further test of this hypothesis, we attempted to derive EpiSCs from rats, a species from which embryonic stem cell derivation has been problematic. Following the method we established in the mouse, epiblast layers were dissected from rat embryos at pre-gastrula stages (E 7.5-8.5) and grown on fibronectin-coated or FBS coated plates in CDM supplemented with Activin and FGF. […] Nevertheless, four EpiSC lines were derived out of 14 embryos of the Wistar strain and 1 EpiSC line was derived out of 20 embryos from the Sprague-Dawley strain using CDM supplemented with Activin alone.

Rat EpiSCs = assay: Oct-4 immunostaining of rat EpiSCs grown in supplemented CDM; conditions: for expression of the pluripotency marker Oct-4: after one week in CDM, 5B431542 10 uM, BMP4 10 ng/ml + 5B431542 10 uM, Activin 10 ng/ml + Noggin 100 ng/ml
Procedure: hESCs, mouse ESCs or EpiSCS were fixed for 20 minutes at 4° C. in 4% paraformaldehyde (PFA) and then washed three times in PBS. Cells were incubated for 20 minutes at room temperature in PBS containing 10% goat serum (Serotec) and subsequently incubated over night at 4° C. with primary antibody diluted in 1% goat serum in PBS as follows: SSEA-3 (1:100, Santa Cruz), SSAE-1 (1:25, gift from PW Andrews), Tra-1-60 (1:100, Santa CruZ), Oct-4 (1:100, SantaCruz), Sox2 (1:100, Abeam ab15830), Nanog (1:100, Abeam), Blirnpl (Abeam). Cells were then washed three times in PBS and incubated with fluorescein-Isothiocyanate-conjugated anti-mouse IgG or IgM (Sigma 1:200 in 1% goat serum in PBS) or rat IgM (Jackson laboratory 1:300 in goat serum in PBS) or rabbit IgG (Jackson laboratory 1:200 in donkey serum in PBS) for two hours at room temperature. Unbound secondary antibody was removed by 3 washes in PBS. Hoechst 33258 was added to the first wash (Sigma 1:10000).
Rat EpiSCs were grown in CDM supplemented in the presence of Activin (10 ng/ml), 5B431542 (10 uM), BMP4 10 ng/ml+5B431542 (10 uM) or Activin (10 ng/ml)+Noggin (IOOng/ml). After one week, the expression of the pluripotency marker Oct-4 was analysed using immunostaining. […] Similar results were obtained with mouse EpiSCs.

[1] = tested on: mouse late epiblast layer; assay: Derivation of EpiSC lines from mouse late epiblast layers; conditions: dissected mouse epiblasts in CDM with BMP4 (50 ng/ml) and LIF
Procedure: Similar culture conditions were tested for derivation of pluripotent cells from pre- and post-implantation rodent embryos. […] For derivation at post implantation stages, the late epiblast layer of embryos at pre- or early gastrulation stages (5.5 dpc or 6.5 dpc) was separated from extraembryonic tissues by microdissection using Cell Dissociation Buffer (Invitrogen) at 4° C. for 15-20 min. to promote dissociation of the layers. […] After 24 hours, the epiblast layers formed colonies of compact cells having a high nucleo-cytoplasmic ratio, a characteristic morphological trait of pluripotent embryonic stem cells. Cells on the edge of the colony started to differentiate the following day, thereby producing a broad ring of stromal cells surrounding smaller aggregates of compact cells. These heterogeneous populations proceeded to form larger colonies of cells 4-5 days later. The latter colonies were picked, dissociated into smaller clumps using collagenase IV (Invitrogen) and then transferred to new dishes. Resulting colonies were passaged again 5 days later using collagenase and mechanical dissociation. […] These cells were designated Epiblast Stem Cells (EpiSCs) on the basis of their origin from pure epiblast cell layers.
Dissected mouse epiblasts were grown in CDM supplemented with BMP4 (50 ng/ml) and LIF, two growth factors required to maintain the pluripotent status of mouse ESCs.

## HGF: growth factor added to rat epiblast cultures
Rat epiblast layers
  differentiation of early epiblast cultures: induced differentiation

## FGF2: fibroblast growth factor 2
Rat epiblast layers
  differentiation of early epiblast cultures: induced differentiation

## NC(=O)c1ccc(-c2nc(-c3ccccn3)c(-c3ccc4c(c3)OCO4)[nH]2)cc1 [5B431542, reference compound]
Rat EpiSCs
  expression of the pluripotency marker Oct-4: loss of Oct-4 expression
Rat EpiSCs; inhibition of Activin/Nodal signalling
  differentiation of EpiSCs: induced rapid differentiation of EpiSCs

## LIF: Leukaemia Inhibitory Factor
[1]
  derivation of EpiSC lines: not able to derive any EpiSC lines

## BMP4: growth factor required with LIF to maintain mouse ESC pluripotency
[1]
  derivation of EpiSC lines: not able to derive any EpiSC lines
Rat EpiSCs
  expression of the pluripotency marker Oct-4: not able to rescue the pluripotent status of EpiSCs

## EGF: growth factor added to rat epiblast cultures
Rat epiblast layers
  differentiation of early epiblast cultures: induced differentiation
